Assay results as given in ChEMBL document CHEMBL2029345, “BC-spiro-estradiols. Synthesis and estrogen receptor binding affinity of four new estradiol isomers” (Bioorg Med Chem Lett, 2012).

Experiments:
[1] = target: Estrogen receptor beta (Homo sapiens) (UniProt Q92731); test: Displacement of [3H]estradiol from human full length estrogen receptor beta by competitive radiometric assay relative to estradiol
[2] = target: T1, Estrogen receptor (Homo sapiens) (UniProt P03372); test: Displacement of [3H]estradiol from human full length estrogen receptor alpha by competitive radiometric assay relative to estradiol
T1 sequence (whole entry): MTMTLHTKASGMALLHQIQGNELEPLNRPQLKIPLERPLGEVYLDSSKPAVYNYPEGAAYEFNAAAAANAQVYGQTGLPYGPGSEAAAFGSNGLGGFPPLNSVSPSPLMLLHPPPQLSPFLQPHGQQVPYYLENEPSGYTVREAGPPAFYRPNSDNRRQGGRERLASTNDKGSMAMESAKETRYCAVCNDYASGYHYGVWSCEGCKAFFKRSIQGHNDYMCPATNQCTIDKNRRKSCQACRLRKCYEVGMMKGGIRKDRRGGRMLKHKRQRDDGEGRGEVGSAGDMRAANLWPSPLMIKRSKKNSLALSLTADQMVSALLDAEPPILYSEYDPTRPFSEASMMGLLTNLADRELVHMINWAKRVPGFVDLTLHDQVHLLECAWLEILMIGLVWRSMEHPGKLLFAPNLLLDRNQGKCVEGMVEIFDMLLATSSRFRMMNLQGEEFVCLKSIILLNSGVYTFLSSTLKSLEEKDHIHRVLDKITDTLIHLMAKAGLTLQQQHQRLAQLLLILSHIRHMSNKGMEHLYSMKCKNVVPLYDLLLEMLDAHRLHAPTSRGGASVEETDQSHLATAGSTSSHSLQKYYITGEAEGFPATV

Sequence of Estrogen receptor beta (Homo sapiens) (Q92731 whole entry): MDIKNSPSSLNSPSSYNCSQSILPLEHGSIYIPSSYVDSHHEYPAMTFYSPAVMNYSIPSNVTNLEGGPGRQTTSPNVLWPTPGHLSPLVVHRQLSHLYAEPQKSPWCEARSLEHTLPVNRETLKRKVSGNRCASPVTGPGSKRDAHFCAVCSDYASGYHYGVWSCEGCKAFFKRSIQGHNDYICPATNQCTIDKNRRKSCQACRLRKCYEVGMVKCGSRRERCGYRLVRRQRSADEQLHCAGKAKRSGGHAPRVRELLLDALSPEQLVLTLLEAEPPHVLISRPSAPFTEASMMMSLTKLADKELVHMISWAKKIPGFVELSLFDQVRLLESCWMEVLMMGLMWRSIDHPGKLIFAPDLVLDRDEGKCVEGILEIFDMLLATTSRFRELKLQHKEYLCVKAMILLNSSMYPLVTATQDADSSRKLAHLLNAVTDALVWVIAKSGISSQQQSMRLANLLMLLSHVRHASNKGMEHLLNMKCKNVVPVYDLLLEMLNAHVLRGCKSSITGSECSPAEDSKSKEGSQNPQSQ

Row | relative binding affinity (RBA) [1] | relative binding affinity (RBA) [2] | Compound
1 | 0.02 | 0.014 | C[C@]12CC[C@@]3(C[C@H]1CC[C@H]2O)OCc1cc(O)ccc13
2 | 3.47 | 0.31 | C[C@]12CC[C@]3(C[C@H]1CC[C@@H]2O)OCCc1cc(O)ccc13
3 | 0.16 | 0.05 | C[C@]12CC[C@]3(CCCc4cc(O)ccc43)C[C@H]1CC[C@H]2O
4 | 9.05 | 2.46 | C[C@]12CC[C@]3(C[C@H]1CC[C@@H]2O)OCc1cc(O)ccc13
5 | 0.23 | 0.12 | C[C@]12CC[C@]3(CCc4cc(O)ccc43)C[C@@H]1CC[C@@H]2O
6 | 6.07 | 1.98 | C[C@]12CC[C@]3(C[C@H]1CC[C@@H]2O)OC(=O)c1cc(O)ccc13
7 | 0.59 | 0.061 | C[C@]12CC[C@@H](c3ccc(O)cc3)C[C@H]1CC[C@H]2O
8 | 0.37 | 0.34 | C[C@]12CC[C@]3(CCc4cc(O)ccc43)C[C@H]1CC[C@H]2O
9 | 9.97 | 2.38 | C[C@]12CC[C@H](c3ccc(O)cc3)C[C@@H]1CC[C@@H]2O
10 | 39.7 | 3.7 | C[C@]12CC[C@@]3(CCCc4cc(O)ccc43)C[C@H]1CC[C@@H]2O
11 | 2.43 | 0.98 | C[C@]12CC[C@@]3(CCc4cc(O)ccc43)C[C@@H]1CC[C@@H]2O
12 | 40.5 | 6.4 | C[C@]12CC[C@@]3(CCc4cc(O)ccc43)C[C@H]1CC[C@@H]2O
